Our source for the DC50 and Emax values is US20230024096A1, “BIFUNCTIONAL COMPOUNDS FOR THE TREATMENT OF CANCER” (Hoffmann-La Roche Inc., priority 2019, published 2023).

Each structure is given as a SMILES string.

This experiment has as its target T1, SMARCA2 (Homo sapiens, UniProt P51531).
T1 construct: endogenous in cells; host or cells: HT1080 (CRISPR HiBiT knock-in clone, generated in house)
As to the kind of experiment: SMARCA2 HiBiT degradation assay (cellular). The experiment is classed as cell-based. The note with it: table head names A549; for DC50: 6 h incubation, HiBiT-tagged SMARCA2, luminescence read-out, read-out: HiBit A549 SMARCA2 IP (nM) 6 h; for Emax: A549, 6 h incubation, Emax = amount of residual protein remaining in the cell following compound treatment. In general terms: HiBiT is a short tag that completes a luciferase, so light tracks the accessible tagged protein.

T1 sequence (P51531 whole entry): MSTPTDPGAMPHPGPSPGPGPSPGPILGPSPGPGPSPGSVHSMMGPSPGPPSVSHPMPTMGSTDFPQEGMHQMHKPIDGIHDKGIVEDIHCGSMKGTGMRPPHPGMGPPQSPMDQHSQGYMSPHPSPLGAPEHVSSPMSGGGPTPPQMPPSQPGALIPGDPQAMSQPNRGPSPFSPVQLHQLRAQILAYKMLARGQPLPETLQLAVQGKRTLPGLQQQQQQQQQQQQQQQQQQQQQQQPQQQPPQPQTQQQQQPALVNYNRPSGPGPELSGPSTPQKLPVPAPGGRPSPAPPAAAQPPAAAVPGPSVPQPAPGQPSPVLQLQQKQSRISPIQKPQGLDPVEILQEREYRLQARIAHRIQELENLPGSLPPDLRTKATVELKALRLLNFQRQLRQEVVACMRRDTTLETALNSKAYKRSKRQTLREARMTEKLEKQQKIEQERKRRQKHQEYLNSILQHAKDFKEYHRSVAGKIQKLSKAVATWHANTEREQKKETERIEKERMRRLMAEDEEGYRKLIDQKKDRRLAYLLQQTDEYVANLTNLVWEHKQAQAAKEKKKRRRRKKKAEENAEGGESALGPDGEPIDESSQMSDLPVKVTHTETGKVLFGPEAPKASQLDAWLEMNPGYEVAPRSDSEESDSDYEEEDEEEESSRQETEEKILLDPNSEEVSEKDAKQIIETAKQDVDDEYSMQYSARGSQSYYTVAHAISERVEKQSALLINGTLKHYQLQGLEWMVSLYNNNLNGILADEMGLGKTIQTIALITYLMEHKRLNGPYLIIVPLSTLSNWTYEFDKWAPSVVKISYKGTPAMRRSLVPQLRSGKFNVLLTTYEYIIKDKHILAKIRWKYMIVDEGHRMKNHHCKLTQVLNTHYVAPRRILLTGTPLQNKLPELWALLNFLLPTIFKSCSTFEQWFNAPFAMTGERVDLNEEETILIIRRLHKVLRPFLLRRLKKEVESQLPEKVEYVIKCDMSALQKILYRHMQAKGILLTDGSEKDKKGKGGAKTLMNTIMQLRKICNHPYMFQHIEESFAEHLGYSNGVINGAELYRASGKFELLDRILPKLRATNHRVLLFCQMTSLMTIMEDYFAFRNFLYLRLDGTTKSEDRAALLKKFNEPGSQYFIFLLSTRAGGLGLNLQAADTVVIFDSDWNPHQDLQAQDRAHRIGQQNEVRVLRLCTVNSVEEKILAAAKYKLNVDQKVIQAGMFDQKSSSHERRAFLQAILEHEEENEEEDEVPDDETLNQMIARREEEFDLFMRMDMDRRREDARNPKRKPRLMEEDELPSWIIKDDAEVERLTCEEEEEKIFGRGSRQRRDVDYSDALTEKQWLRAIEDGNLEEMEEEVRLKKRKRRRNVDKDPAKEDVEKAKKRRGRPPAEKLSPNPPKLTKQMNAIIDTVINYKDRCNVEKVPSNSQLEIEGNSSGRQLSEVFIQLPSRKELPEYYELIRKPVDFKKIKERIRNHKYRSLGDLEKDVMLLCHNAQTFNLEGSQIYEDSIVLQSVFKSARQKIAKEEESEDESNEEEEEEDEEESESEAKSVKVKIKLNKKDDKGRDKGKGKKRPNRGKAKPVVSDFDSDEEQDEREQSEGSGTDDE

With `Nc1nnc(-c2ccccc2O)cc1N1CC2CCC(C1)N2c1cccc(OCCN2CCN(C(=O)CN3CCC(c4ccc(OC5CCC(=O)NC5=O)cn4)CC3)CC2)c1` (centres unmarked) [Example 198, 3-[[6-[1-[2-[4-[2-[3-[3-[3-amino-6-(2-hydroxyphenyl)pyridazin-4-yl]-3,8-diazabicyclo[3.2.1]octan-8-yl]phenoxy]ethyl]piperazin-1-yl]-2-oxo-ethyl]-4-piperidyl]-3-pyridyl]oxy]piperidine-2,6-dione], the DC50 turned out to be 277 nM and the Emax was 68%.
With `Nc1nnc(-c2ccccc2O)cc1N1CC(Oc2cccc(C(=O)N3CCN(C(=O)CCCCCCNc4cccc5c4C(=O)N(C4CCC(=O)NC4=O)C5=O)CC3)c2)C1` (centres unmarked) [Example 145, 4-[[7-[4-[3-[1-[3-amino-6-(2-hydroxyphenyl)pyridazin-4-yl]azetidin-3-yl]oxybenzoyl]piperazin-1-yl]-7-oxo-heptyl]amino]-2-(2,6-dioxo-3-piperidyl)isoindoline-1,3-dione], the DC50 was 928 nM and the maximal effect (Emax) came out at 69%.
For the compound `CC(C)(Nc1cccc2c1C(=O)N(C1CCC(=O)NC1=O)C2=O)c1cn(CCCCCCCCCN2CCN(c3ccc(N4CCCC(Oc5cc(-c6ccccc6O)nnc5N)C4)cc3)CC2)nn1` (centres unmarked) [Example 88, 4-[[1-[1-[9-[4-[4-[3-[3-amino-6-(2-hydroxyphenyl)pyridazin-4-yl]oxy-1-piperidyl]phenyl]piperazin-1-yl]nonyl]triazol-4-yl]-1-methyl-ethyl]amino]-2-(2,6-dioxo-3-piperidyl)isoindoline-1,3-dione], the DC50 was found to be 55 nM and the Emax came out at 37%.
In the case of `Nc1nnc(-c2ccccc2O)cc1N1CCC(C(=O)N2CCC(C(=O)N3CCC(c4ccc(C5CCC(=O)NC5=O)cc4)CC3)CC2)(c2ccccc2)CC1` (centres unmarked) [Example 175, 3-(4-(1-(1-(1-(3-amino-6-(2-hydroxyphenyl)pyridazin-4-yl)-4-phenylpiperidine-4-carbonyl)piperidine-4-carbonyl)piperidin-4-yl)phenyl)piperidine-2,6-dione], the DC50 worked out at 42 nM and the Emax was found to be 47%.

Broadly, the Emax is the size of the effect at its maximum, as opposed to the concentration needed.
